Molecular target: SMARCA2 (Homo sapiens, UniProt P51531)
Assay: MSD SMARCA2 degradation in NCI-H1299 cell line (24 h)
Format: cell-based
Parameters: HC: NCI-H1299 cells treated with DMSO; host or cells: NCI-H1299
Settings: for Dmax: NCI-H1299, NCI-H1299 cells; for DC50: NCI-H1299 cells, read-out: SMARCA2 MSD H1299 degradation 24 h: External Abs-DC50
Procedure: Example 32. MSD SMARCA2 Degradation in […] Cell Line
Cell Culture: Cells were cultured in exponential growth phase.
Compound Preparation and Treatment: NCI-H1299 cells were seeded into the 96-well plate at 4.0*10^4 cells per 100 ul per well. Incubate the plate in the incubator overnight. The next day, compounds were diluted to designed stock concentration by TECAN, then perform a 3 fold, 9-point dilution via transferring 15 uL compound into 30 μL DMSO using Apricot. 200 nL diluted compound from compound source plate were transferred into the 96-intermediate plate as designated by using Echo550, followed with 100 ul culture medium to make the 2× compound solution. Cell plate were changed with 80 ul of fresh culture medium and 80 ul of 2× compound solution was added into the well to achieve the final designed concentration. Cell plate was then shaken at 720 rpm for 5 min and incubated for 24 hours in the incubator.
Sample Preparation: Media was aspirated from the cultures and the plate was washed with PBS twice. 60 ul of pre-chilled PIPA lysis buffer (Boston BioProducts BP-115D) with protease inhibitor were directly added into the well to lyze the cells for 20 minutes at 4° C. Cell lysates were collected.
MSD Procedure: The MSD plate was coated with 40 ul cell lysate and incubated at 4° C. overnight. The next day, the MSD coated bare plate was washed 3 times with 150 ul 1×TBST per well, blocked with 150 ul of blocking buffer per well, and shaken for 1 hour at RT, 600 rpm. Blocking buffer was 3% Blocker A in TBST. MSD plate was then washed 3 times with 150 ul 1×TBST per well and Primary Detection antibody (Rabbit anti-SMARCA2/BRM antibody, 100 μg/ml, ab223735) was added to a final [conc.]: 0.3 ug/ml, 25 ul/well and shaken for 1 hour at RT, 600 rpm. Antibody was prepared in Antibody Detection buffer (1% Blocker A in 1×TBST). The MSD plate was then washed 3 times with 150 ul 1×TBST per well. Secondary Detection antibody (SULFO-TAG anti-species antibody) was then added to a final [conc.]: 1 ug/ml, 25 ul/well, and shaken for 1 hour at RT, 600 rpm. Antibodies were prepared in Antibody Detection buffer (1% Blocker A in 1×TBST). MSD plate was washed 3 times with 150 ul 1×TBST per well and 2×MSD reading buffer was added, 150 ul per well, and diluted from 4× with water. MSD instrument was then read.
Data Analysis: The percentage of relative level of SMARCA2 level was calculated following equation below.
LC: A2780, SMARCA2 negative cells. HC: NCI-H1299 cells treated with DMSO.
The letter codes for the percentage of SMARCA2 degradation after 24 hours (Dmax %) include: A (>90% degradation), B (>70-90 degradation), C (50-70 degradation), and D (<50% degradation).

Sequence of SMARCA2 (P51531 whole entry): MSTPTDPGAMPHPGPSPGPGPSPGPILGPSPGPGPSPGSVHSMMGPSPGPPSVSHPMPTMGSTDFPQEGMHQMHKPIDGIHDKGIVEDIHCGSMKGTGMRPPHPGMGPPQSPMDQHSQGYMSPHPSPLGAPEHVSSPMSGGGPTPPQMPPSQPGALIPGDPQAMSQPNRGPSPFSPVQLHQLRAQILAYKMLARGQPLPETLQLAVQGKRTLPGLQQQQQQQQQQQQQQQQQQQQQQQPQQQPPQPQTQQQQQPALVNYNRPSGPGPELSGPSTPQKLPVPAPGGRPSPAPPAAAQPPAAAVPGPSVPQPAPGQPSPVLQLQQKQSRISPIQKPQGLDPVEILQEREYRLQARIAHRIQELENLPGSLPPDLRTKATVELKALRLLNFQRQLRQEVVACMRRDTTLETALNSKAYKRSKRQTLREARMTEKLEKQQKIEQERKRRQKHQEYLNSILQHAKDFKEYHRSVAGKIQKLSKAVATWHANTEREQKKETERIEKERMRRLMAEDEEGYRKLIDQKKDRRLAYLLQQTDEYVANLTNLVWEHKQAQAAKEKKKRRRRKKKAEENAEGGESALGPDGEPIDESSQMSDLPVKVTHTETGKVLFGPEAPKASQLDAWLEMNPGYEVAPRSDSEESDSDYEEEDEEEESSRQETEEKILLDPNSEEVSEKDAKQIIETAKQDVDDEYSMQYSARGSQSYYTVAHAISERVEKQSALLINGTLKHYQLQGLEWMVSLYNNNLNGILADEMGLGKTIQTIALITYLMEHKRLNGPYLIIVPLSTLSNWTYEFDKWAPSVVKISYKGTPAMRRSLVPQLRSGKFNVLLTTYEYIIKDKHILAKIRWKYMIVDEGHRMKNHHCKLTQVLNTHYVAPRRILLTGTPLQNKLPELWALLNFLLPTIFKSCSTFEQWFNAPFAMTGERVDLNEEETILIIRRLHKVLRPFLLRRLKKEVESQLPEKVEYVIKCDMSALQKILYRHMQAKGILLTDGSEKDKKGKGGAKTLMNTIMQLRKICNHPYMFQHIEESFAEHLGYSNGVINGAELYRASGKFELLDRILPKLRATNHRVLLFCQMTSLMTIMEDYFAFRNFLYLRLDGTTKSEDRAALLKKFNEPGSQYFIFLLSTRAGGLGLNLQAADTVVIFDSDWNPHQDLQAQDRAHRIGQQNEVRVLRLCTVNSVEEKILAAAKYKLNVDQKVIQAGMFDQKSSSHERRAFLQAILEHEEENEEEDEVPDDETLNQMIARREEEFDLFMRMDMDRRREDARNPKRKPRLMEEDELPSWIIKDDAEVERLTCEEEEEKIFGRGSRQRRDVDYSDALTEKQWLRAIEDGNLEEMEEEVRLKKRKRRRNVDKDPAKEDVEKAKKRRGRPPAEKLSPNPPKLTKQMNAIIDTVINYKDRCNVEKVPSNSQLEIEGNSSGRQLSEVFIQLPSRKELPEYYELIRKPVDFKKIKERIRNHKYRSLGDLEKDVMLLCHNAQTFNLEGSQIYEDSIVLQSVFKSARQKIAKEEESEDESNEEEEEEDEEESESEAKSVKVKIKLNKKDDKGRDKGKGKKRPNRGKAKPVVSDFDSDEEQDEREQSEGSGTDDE

| Structure (SMILES) | Dmax [%] | DC50 [µM] |
| --- | --- | --- |
| O=C1CCC(N2C(=O)c3cccc(OCCc4cn(CCCc5cccc(N6C[C@H]7C[C@@H]6CN7/C=C/C(=O)c6ccccc6O)n5)nn4)c3C2=O)C(=O)N1 (stereo partly shown) [I-69] | < 50 | > 1 |
| O=C1CCC(N2C(=O)c3cccc(OCCCc4cn(CCCc5cccc(N6C[C@H]7C[C@@H]6CN7/C=C/C(=O)c6ccccc6O)n5)nn4)c3C2=O)C(=O)N1 (stereo partly shown) [I-70] | 70 to 90 | > 1 |
| O=C1CCC(N2C(=O)c3cccc(OCCCCc4cn(CCCc5cccc(N6C[C@H]7C[C@@H]6CN7/C=C/C(=O)c6ccccc6O)n5)nn4)c3C2=O)C(=O)N1 (stereo partly drawn) [I-71, 2-(2,6-dioxopiperidin-3-yl)-4-(4-(1-(3-(6-((1R,4R)-5-((E)-3-(2-hydroxyphenyl)-3-oxoprop-1-en-1-yl)-2,5-diazabicyclo[2.2.1]heptan-2-yl)pyridin-2-yl)propyl)-1H-1,2,3-triazol-4-yl)butoxy)isoindoline-1,3-dione] | < 50 | > 1 |
| Cn1c(=O)n(C2CCC(=O)NC2=O)c2ccc(CNCCc3cn(Cc4cccc(N5C[C@H]6C[C@@H]5CN6/C=C/C(=O)c5ccccc5O)n4)nn3)cc21 (stereo partly shown) [I-73] | < 50 | > 1 |
| Cn1c(=O)n(C2CCC(=O)NC2=O)c2ccc(CNCCCc3cn(Cc4cccc(N5C[C@H]6C[C@@H]5CN6/C=C/C(=O)c5ccccc5O)n4)nn3)cc21 (stereo partly shown) [I-74] | < 50 | > 1 |
| Cn1c(=O)n(C2CCC(=O)NC2=O)c2ccc(CNCCCCc3cn(Cc4cccc(N5C[C@H]6C[C@@H]5CN6/C=C/C(=O)c5ccccc5O)n4)nn3)cc21 (stereo partly shown) [I-75] | < 50 | > 1 |
| Cn1c(=O)n(C2CCC(=O)NC2=O)c2ccc(CNCCCCCc3cn(Cc4cccc(N5C[C@H]6C[C@@H]5CN6/C=C/C(=O)c5ccccc5O)n4)nn3)cc21 (stereo partly shown) [I-76] | < 50 | > 1 |
| Cn1c(=O)n(C2CCC(=O)NC2=O)c2ccc(CNCCCCCCc3cn(Cc4cccc(N5C[C@H]6C[C@@H]5CN6/C=C/C(=O)c5ccccc5O)n4)nn3)cc21 (stereo partly shown) [I-77] | < 50 | > 1 |
| Cn1c(=O)n(C2CCC(=O)NC2=O)c2cccc(CNCCc3cn(Cc4cccc(N5C[C@H]6C[C@@H]5CN6/C=C/C(=O)c5ccccc5O)n4)nn3)c21 (stereo partly drawn) [I-78, 3-[4-[[2-[1-[[6-[(1R,4R)-5-[(E)-3-(2-hydroxyphenyl)-3-oxo-prop-1-enyl]-2,5-diazabicyclo[2.2.1]heptan-2-yl]-2-pyridyl]methyl]triazol-4-yl]ethylamino]methyl]-3-methyl-2-oxo-benzimidazol-1-yl]piperidine-2,6-dione] | < 50 | > 1 |
| Cn1c(=O)n(C2CCC(=O)NC2=O)c2cccc(CNCCCc3cn(Cc4cccc(N5C[C@H]6C[C@@H]5CN6/C=C/C(=O)c5ccccc5O)n4)nn3)c21 (stereo partly shown) [I-79] | < 50 | > 1 |
| Cn1c(=O)n(C2CCC(=O)NC2=O)c2cccc(CNCCCCc3cn(Cc4cccc(N5C[C@H]6C[C@@H]5CN6/C=C/C(=O)c5ccccc5O)n4)nn3)c21 (stereo partly shown) [I-80] | < 50 | > 1 |
| Cn1c(=O)n(C2CCC(=O)NC2=O)c2cccc(CNCCCCCc3cn(Cc4cccc(N5C[C@H]6C[C@@H]5CN6/C=C/C(=O)c5ccccc5O)n4)nn3)c21 (stereo partly shown) [I-81] | < 50 | > 1 |
| Cn1c(=O)n(C2CCC(=O)NC2=O)c2cccc(CNCCCCCCc3cn(Cc4cccc(N5C[C@H]6C[C@@H]5CN6/C=C/C(=O)c5ccccc5O)n4)nn3)c21 (stereo partly shown) [I-82] | < 50 | > 1 |
| Cn1c(=O)n(C2CCC(=O)NC2=O)c2ccc(CCCOc3ccc(CN4CCN(c5cc(-c6ccccc6O)nnc5N)CC4)cc3)cc21 (stereo not shown) [I-83, 3-(5-(3-(4-((4-(3-amino-6-(2-hydroxyphenyl)pyridazin-4-yl)piperazin-1-yl)methyl)phenoxy)propyl)-3-methyl-2-oxo-2,3-dihydro-1H-benzo[d]imidazol-1-yl)piperidine-2,6-dione] | < 50 | > 1 |
| Cn1c(=O)n(C2CCC(=O)NC2=O)c2ccc(CCCCOc3ccc(CN4CCN(c5cc(-c6ccccc6O)nnc5N)CC4)cc3)cc21 (stereo not shown) [I-84] | < 50 | > 1 |
| Cn1c(=O)n(C2CCC(=O)NC2=O)c2ccc(CCCCCOc3ccc(CN4CCN(c5cc(-c6ccccc6O)nnc5N)CC4)cc3)cc21 (stereo not shown) [I-85] | < 50 | > 1 |
| Cn1c(=O)n(C2CCC(=O)NC2=O)c2ccc(CCCCCCOc3ccc(CN4CCN(c5cc(-c6ccccc6O)nnc5N)CC4)cc3)cc21 (stereo not shown) [I-86] | < 50 | > 1 |
| Cn1c(=O)n(C2CCC(=O)NC2=O)c2ccc(CCCCCCCOc3ccc(CN4CCN(c5cc(-c6ccccc6O)nnc5N)CC4)cc3)cc21 (stereo not shown) [I-87] | < 50 | > 1 |

| Structure (SMILES) | Dmax [%] | DC50 [µM] |
| --- | --- | --- |
| Cn1c(=O)n(C2CCC(=O)NC2=O)c2ccc(CCCCCCCc3cnc(N4C5CCC4CN(c4cc(-c6ccccc6O)nnc4N)C5)nc3)cc21 (stereo not shown) [I-88] | > 90 | < 0.1 |
| Cn1c(=O)n(C2CCC(=O)NC2=O)c2ccc(CCCCCCCCc3cnc(N4C5CCC4CN(c4cc(-c6ccccc6O)nnc4N)C5)nc3)cc21 (stereo not shown) [I-89, 3-[5-[8-[2-[3-[3-amino-6-(2-hydroxyphenyl)pyridazin-4-yl]-3,8-diazabicyclo [3.2.1]octan-8-yl]pyrimidin-5-yl]octyl]-3-methyl-2-oxo-benzimidazol-1-yl]piperidine-2,6-dione] | > 90 | < 0.1 |
| Cn1c(=O)n(C2CCC(=O)NC2=O)c2cccc(CCCOc3ccc(CN4CCN(c5cc(-c6ccccc6O)nnc5N)CC4)cc3)c21 (stereo not shown) [I-90] | 50 to 70 | > 1 |
| Cn1c(=O)n(C2CCC(=O)NC2=O)c2cccc(CCCCOc3ccc(CN4CCN(c5cc(-c6ccccc6O)nnc5N)CC4)cc3)c21 (stereo not shown) [I-91] | < 50 | > 1 |
| Cn1c(=O)n(C2CCC(=O)NC2=O)c2cccc(CCCCCOc3ccc(CN4CCN(c5cc(-c6ccccc6O)nnc5N)CC4)cc3)c21 (stereo not shown) [I-92] | 50 to 70 | 0.1 to 0.5 |
| Cn1c(=O)n(C2CCC(=O)NC2=O)c2cccc(CCCCCCOc3ccc(CN4CCN(c5cc(-c6ccccc6O)nnc5N)CC4)cc3)c21 (stereo not shown) [I-93] | < 50 | > 1 |
| Cn1c(=O)n(C2CCC(=O)NC2=O)c2cccc(CCCCCCCOc3ccc(CN4CCN(c5cc(-c6ccccc6O)nnc5N)CC4)cc3)c21 (stereo not shown) [I-94] | 50 to 70 | > 1 |
| Cn1c(=O)n(C2CCC(=O)NC2=O)c2cccc(CCCOc3cccc(CN4CCN(c5cc(-c6ccccc6O)nnc5N)CC4)c3)c21 (stereo not shown) [I-95] | < 50 | > 1 |
| Cn1c(=O)n(C2CCC(=O)NC2=O)c2cccc(CCCCOc3cccc(CN4CCN(c5cc(-c6ccccc6O)nnc5N)CC4)c3)c21 (stereo not shown) [I-96] | 50 to 70 | 0.1 to 0.5 |
| Cn1c(=O)n(C2CCC(=O)NC2=O)c2cccc(CCCCCOc3cccc(CN4CCN(c5cc(-c6ccccc6O)nnc5N)CC4)c3)c21 (stereo not shown) [I-97] | 50 to 70 | 0.1 to 0.5 |
| Cn1c(=O)n(C2CCC(=O)NC2=O)c2cccc(CCCCCCOc3cccc(CN4CCN(c5cc(-c6ccccc6O)nnc5N)CC4)c3)c21 (stereo not shown) [I-98] | 50 to 70 | 0.501 to 1 |
| Cn1c(=O)n(C2CCC(=O)NC2=O)c2cccc(CCCCCCCOc3cccc(CN4CCN(c5cc(-c6ccccc6O)nnc5N)CC4)c3)c21 (stereo not shown) [I-99] | < 50 | > 1 |
| Cn1c(=O)n(C2CCC(=O)NC2=O)c2ccc(CCCOc3cccc(CN4CCN(c5cc(-c6ccccc6O)nnc5N)CC4)c3)cc21 (stereo not shown) [I-100] | < 50 | > 1 |
| Cn1c(=O)n(C2CCC(=O)NC2=O)c2ccc(CCCCOc3cccc(CN4CCN(c5cc(-c6ccccc6O)nnc5N)CC4)c3)cc21 (stereo not shown) [I-101] | < 50 | > 1 |
| Cn1c(=O)n(C2CCC(=O)NC2=O)c2ccc(CCCCCOc3cccc(CN4CCN(c5cc(-c6ccccc6O)nnc5N)CC4)c3)cc21 (stereo not shown) [I-102] | < 50 | > 1 |
| Cn1c(=O)n(C2CCC(=O)NC2=O)c2ccc(CCCCCCOc3cccc(CN4CCN(c5cc(-c6ccccc6O)nnc5N)CC4)c3)cc21 (stereo not shown) [I-103] | < 50 | > 1 |
| Cn1c(=O)n(C2CCC(=O)NC2=O)c2ccc(CCCCCCCOc3cccc(CN4CCN(c5cc(-c6ccccc6O)nnc5N)CC4)c3)cc21 (stereo not shown) [I-104] | 70 to 90 | 0.1 to 0.5 |
